Measurements taken from the supplement of paper PMC10307832.

Experiments:
Test in all cases: relative viability (nuclei count vs DMSO), 5 days (fraction); higher = more cells survive
Tanzisertib + Pemetrexed = compound: O[C@H]1CC[C@H](Nc2ncc3nc(Nc4c(F)cc(F)cc4F)n([C@H]4CCOC4)c3n2)CC1 [Tanzisertib] + Nc1nc2[nH]cc(CCc3ccc(C(=O)N[C@@H](CCC(=O)O)C(=O)O)cc3)c2c(=O)[nH]1 [Pemetrexed] (partner 0.2 µM)
Method in brief: (§1)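 Relative viability was taken as the ratio of nuclei in treated wells to nuclei in vehicle wells. Lung cancer cell lines in 1536-well plates received compounds by pin tool one day after seeding, either one drug alone or a fixed anchor-drug dose plus five library-drug doses (not always all listed) in √10 steps. Nuclei were counted on 4× images after 5 days of treatment, and values are medians of duplicate plates.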

Tanzisertib + Navitoclax = compound: O[C@H]1CC[C@H](Nc2ncc3nc(Nc4c(F)cc(F)cc4F)n([C@H]4CCOC4)c3n2)CC1 [Tanzisertib] + CC1(C)CCC(c2ccc(Cl)cc2)=C(CN2CCN(c3ccc(C(=O)NS(=O)(=O)c4ccc(N[C@H](CCN5CCOCC5)CSc5ccccc5)c(S(=O)(=O)C(F)(F)F)c4)cc3)CC2)C1 [Navitoclax] (partner 0.5 µM)
Method in brief: as §1

[1] = compound: C[C@@H](N)c1ccc(C(=O)Nc2ccnc3[nH]ccc23)cc1 + Cc1cc(Nc2cc(N3CCN(C)CC3)nc(Sc3ccc(NC(=O)C4CC4)cc3)n2)n[nH]1 [Tozasertib] (partner 0.1 µM)
Method in brief: as §1

[2] = compound: C[C@@H](N)c1ccc(C(=O)Nc2ccnc3[nH]ccc23)cc1 + CC(C)C[C@H](NC(=O)[C@H](Cc1ccccc1)NC(=O)c1cnccn1)B(O)O [Bortezomib] (partner 0.002 µM)
Method in brief: as §1

Cell Line	relative viability (Tanzisertib + Pemetrexed; first compound 0.08 µM)	relative viability (Tanzisertib + Pemetrexed; first compound 0.253 µM)	relative viability (Tanzisertib + Pemetrexed; first compound 0.8 µM)	relative viability (Tanzisertib + Pemetrexed; first compound 2.53 µM)	relative viability (Tanzisertib + Pemetrexed; first compound 8 µM)	relative viability (Tanzisertib + Navitoclax; first compound 0.08 µM)	relative viability (Tanzisertib + Navitoclax; first compound 0.253 µM)	relative viability (Tanzisertib + Navitoclax; first compound 0.8 µM)	relative viability (Tanzisertib + Navitoclax; first compound 2.53 µM)	relative viability (Tanzisertib + Navitoclax; first compound 8 µM)	relative viability ([1]; first compound 0.04 µM)	relative viability ([1]; first compound 0.1265 µM)	relative viability ([1]; first compound 0.4 µM)	relative viability ([1]; first compound 1.265 µM)	relative viability ([1]; first compound 4 µM)	relative viability ([2]; first compound 0.04 µM)	relative viability ([2]; first compound 0.1265 µM)	relative viability ([2]; first compound 0.4 µM)	relative viability ([2]; first compound 4 µM)	relative viability ([2]; first compound 1.265 µM)
NCI-H2170	0.265	0.292	0.282	0.265	0.251	0.702	0.496	0.656	0.57	0.582	0.719	0.663	0.784	0.699	0.636	–	–	–	–	–
HCC-366	–	0.201	0.152	0.204	0.328	1.16	1.02	1.08	1.13	1.01	0.141	0.169	0.132	–	0.229	1.16	1.08	1.15	1.15	–
NCI-H2347	0.454	0.468	0.435	0.408	0.442	0.793	0.809	0.888	0.87	0.837	0.466	0.64	0.592	–	0.706	0.955	1.02	1.08	1.09	–
COR-L 105	1.4	1.12	1.14	1.28	0.884	0.88	0.789	0.728	0.819	0.683	0.359	0.355	0.349	0.296	0.177	0.826	0.732	0.791	0.649	0.469
201T	0.321	0.322	0.325	0.314	0.298	1.19	1.18	1.23	1.18	1.18	0.945	0.897	0.977	1.08	1.04	1.09	1.08	1.11	1.25	1.17
NCI-H2126	0.674	0.69	0.728	0.723	0.515	0.914	0.854	0.877	0.815	0.893	0.92	0.885	0.877	0.921	0.854	1.13	1.11	1.17	1.22	1.14
LC-2-ad	0.282	0.292	0.275	0.272	0.294	0.549	0.441	0.548	0.534	0.507	0.469	0.523	0.512	–	0.441	1.06	1.05	1.01	0.817	1.03
NCI-H2085	–	0.934	0.942	0.841	0.765	1.11	1.05	1.2	1.09	1.14	0.865	0.772	0.694	–	0.722	0.882	1	0.979	0.842	0.996
NCI-H358	0.165	0.176	0.171	0.163	0.179	–	–	–	–	–	0.111	0.109	0.0968	0.105	0.0998	–	–	–	–	–
H3255	0.555	0.528	0.525	0.526	0.441	0.618	0.587	0.428	0.434	0.12	0.568	0.632	0.779	0.824	0.613	0.827	0.86	0.895	0.657	0.955
NCI-H2228	0.371	0.288	0.378	0.355	0.348	0.985	1.06	1.07	1.04	0.742	0.252	0.315	0.267	0.299	0.228	1.42	1.18	1.31	1.01	0.932
CAL-12T	1.06	1.24	1.12	1.21	1.18	1.21	1.18	1.37	1.37	1.34	0.366	0.392	0.413	0.443	0.283	1.09	1.07	1.2	1.04	–
A-427	0.958	0.99	0.998	1.04	0.916	0.952	0.938	1.01	0.86	0.958	0.26	0.185	0.237	–	0.22	0.985	1.06	0.984	0.764	–
HARA	0.282	0.275	0.282	0.24	0.245	1.13	1.18	1.13	1.14	1.22	–	0.101	0.0806	–	0.087	1.24	1.26	1.22	1.14	1.17
NCI-H1793	1.07	0.914	0.976	0.766	0.828	0.432	0.424	0.445	0.39	0.382	0.447	0.32	0.367	–	0.378	–	–	–	–	–
NCI-H1623	–	–	–	–	–	–	–	–	–	–	0.443	0.452	0.459	0.475	0.462	–	–	–	–	–
NCI-H2009	1.01	1.03	0.957	1.04	1.1	1.22	1.27	1.19	1.27	1.22	0.736	0.704	0.643	0.623	0.544	0.89	0.928	0.969	0.827	0.354
ABC-1	–	–	–	–	–	–	–	–	–	–	0.173	0.158	0.203	–	0.164	0.289	0.308	0.333	0.319	0.272
IA-LM	–	–	–	–	–	0.814	0.622	0.691	0.963	1.1	–	–	–	–	–	0.977	0.87	1.08	0.677	1.07
NCI-H322M	0.644	0.657	0.566	0.621	0.548	1.34	1.12	1.11	1.16	1.16	0.491	0.521	0.494	–	0.464	1.4	1.38	1.34	1.72	–
NCI-H1792	1.2	0.694	0.876	0.763	0.625	0.75	0.777	0.674	0.553	0.598	–	–	–	–	–	0.955	0.983	1.02	0.797	1.03

Cell Line	relative viability (Tanzisertib + Pemetrexed; first compound 0.08 µM)	relative viability (Tanzisertib + Pemetrexed; first compound 0.253 µM)	relative viability (Tanzisertib + Pemetrexed; first compound 0.8 µM)	relative viability (Tanzisertib + Pemetrexed; first compound 2.53 µM)	relative viability (Tanzisertib + Pemetrexed; first compound 8 µM)	relative viability (Tanzisertib + Navitoclax; first compound 0.08 µM)	relative viability (Tanzisertib + Navitoclax; first compound 0.253 µM)	relative viability (Tanzisertib + Navitoclax; first compound 0.8 µM)	relative viability (Tanzisertib + Navitoclax; first compound 2.53 µM)	relative viability (Tanzisertib + Navitoclax; first compound 8 µM)	relative viability ([1]; first compound 0.04 µM)	relative viability ([1]; first compound 0.1265 µM)	relative viability ([1]; first compound 0.4 µM)	relative viability ([1]; first compound 1.265 µM)	relative viability ([1]; first compound 4 µM)	relative viability ([2]; first compound 0.04 µM)	relative viability ([2]; first compound 0.1265 µM)	relative viability ([2]; first compound 0.4 µM)	relative viability ([2]; first compound 4 µM)	relative viability ([2]; first compound 1.265 µM)
LXF-289	0.902	0.923	1.01	0.915	1.02	1.05	0.917	1	0.962	1.03	0.147	0.185	0.194	0.168	0.175	1.01	0.976	1.07	0.952	1.05
HCC-827	0.266	0.229	0.25	0.251	0.175	0.961	1.01	1.11	1	0.742	0.449	0.445	0.447	0.411	0.412	0.97	1.03	1.1	0.972	1.05
EMC-BAC-2	0.429	0.427	0.432	0.451	0.469	1.23	1.16	1.18	1.12	1.07	0.252	0.276	0.3	0.271	0.24	0.882	1.21	1.19	0.968	1.08
SW 900	–	0.51	0.501	0.451	0.464	–	–	–	–	–	0.551	0.561	0.551	0.663	0.714	–	–	–	–	–
SK-MES-1	0.971	0.887	0.962	0.982	0.737	1.31	1.25	1.26	1.22	1.21	0.881	0.921	0.854	0.825	0.629	–	–	–	–	–
NCI-H1299	–	–	–	–	–	1.06	1.09	1.06	1.08	1.12	–	–	–	–	–	1.02	0.998	0.958	0.827	0.938
NCI-H1563	0.829	0.935	0.761	0.711	0.619	–	–	–	–	–	–	–	–	–	–	0.776	0.798	0.777	0.897	0.699
NCI-H661	0.896	0.896	0.872	0.919	0.913	–	–	–	–	–	0.286	0.355	0.378	0.34	0.363	0.739	0.844	0.94	0.737	0.76
NCI-H1944	0.733	0.589	0.686	0.678	0.554	1.11	1.04	1.04	1.05	1.03	0.278	0.269	0.271	0.258	0.218	–	–	–	–	–
LK-2	0.294	0.273	0.161	0.234	0.244	0.871	0.847	0.87	0.884	0.9	0.165	–	0.17	–	0.171	–	–	–	–	–
NCI-H727	–	–	–	–	–	0.377	0.354	0.481	0.477	0.502	0.654	0.746	0.66	0.602	0.544	1.09	1.05	1.38	1.12	0.67
Calu-6	–	–	–	–	–	0.872	0.835	0.9	0.848	0.994	–	–	–	–	–	0.99	1.1	0.911	0.886	0.886
NCI-H1395	0.868	0.88	0.971	0.939	0.788	1.05	1.27	1.43	1.1	1.01	0.811	0.749	0.739	0.805	0.656	–	–	–	–	–
NCI-H650	0.885	1.03	0.969	1.09	0.576	–	–	–	–	–	–	0.665	0.775	0.644	0.588	0.586	0.695	0.86	0.64	–
NCI-H1703	–	–	–	–	–	1.12	0.837	1.05	1.03	0.927	–	–	–	–	–	0.376	0.281	0.256	0.236	–
EBC-1	–	–	–	–	–	0.433	0.419	0.451	0.404	0.318	–	–	–	–	–	0.573	0.662	0.558	0.487	0.444
NCI-H2342	0.867	0.749	0.768	0.708	0.668	–	–	–	–	–	0.496	0.382	0.493	0.495	0.525	–	–	–	–	–
NCI-H1648	0.689	0.698	0.775	0.754	0.735	–	–	–	–	–	0.655	0.513	0.984	1.02	0.957	–	–	–	–	–
NCI-H522	1.04	1.07	0.915	1.07	1.05	–	–	–	–	–	0.591	0.476	0.512	0.509	0.55	–	–	–	–	–
A549	–	–	–	–	–	1.3	1.08	1.26	1.1	1.3	–	–	–	–	–	–	–	–	–	–
LCLC-103H	0.521	0.472	0.451	0.432	0.468	–	–	–	–	–	0.502	0.482	0.51	0.421	0.388	1.13	0.819	1.2	0.856	0.915
